{
  "source": "patent US6579533B1",
  "about": "“Bioabsorbable drug delivery system for local treatment and prevention of infections” (Bioasborbable Concepts, Ltd., priority 1999, dated 2003)",
  "origin": "cited, not measured here",
  "tested_on": "most microbial strains",
  "data": [
    {"smiles": "O=C(O)c1cn(C2CC2)c2cc(N3CCNCC3)c(F)cc2c1=O", "note": "[ciprofloxacin]", "values": [
      {"measurement": "minimum inhibition concentration (MIC)", "value": "< 2", "unit": "µg/mL"}
    ]}
  ]
}
